Assay results as given in ChEMBL document CHEMBL1134628, “Are free energy calculations useful in practice? A comparison with rapid scoring functions for the p38 MAP kinase protein system” (J Med Chem, 2001).

Target: MAP kinase p38 (Homo sapiens, UniProt O15264+Q15759+Q16539+P53778)
Assay: Binding affinity against p38 MAP kinase system
Format: protein assay

pIC50	Compound
6.602	O=c1ncn2nc(Sc3ccccc3)ccc2c1-c1c(Cl)cccc1Cl
6.097	O=c1ncn2nc(Sc3ccc(Cl)c(Cl)c3)ccc2c1-c1c(Cl)cccc1Cl
5.854	Cc1ccc(Sc2ccc3c(-c4c(Cl)cccc4Cl)c(=O)ncn3n2)cc1
6.553	O=c1ncn2nc(Sc3cccc(Cl)c3)ccc2c1-c1c(Cl)cccc1Cl
6.347	O=c1ncn2nc(Sc3cccc(F)c3)ccc2c1-c1c(Cl)cccc1Cl
6.745	Cc1cc(Cl)ccc1Sc1ccc2c(-c3c(Cl)cccc3Cl)c(=O)ncn2n1
6.444	O=c1ncn2nc(Sc3ccccc3O)ccc2c1-c1c(Cl)cccc1Cl
5.854	Cc1cccc(Sc2ccc3c(-c4c(Cl)cccc4Cl)c(=O)ncn3n2)c1
6.658	Nc1cc(F)ccc1Sc1ccc2c(-c3c(Cl)cccc3Cl)c(=O)ncn2n1
6.699	Cc1ccccc1Sc1ccc2c(-c3c(Cl)cccc3Cl)c(=O)ncn2n1
6.602	O=c1ncn2nc(Sc3ccccc3Br)ccc2c1-c1c(Cl)cccc1Cl
7	O=c1ncn2nc(Sc3ccc(F)cc3)ccc2c1-c1c(Cl)cccc1Cl
5.721	Cc1ccc(Sc2ccc3c(-c4c(Cl)cccc4Cl)c(=O)ncn3n2)cc1C
6.577	Cc1ccc(Sc2ccc3c(-c4c(Cl)cccc4Cl)c(=O)ncn3n2)c(C)c1
7.444	O=c1ncn2nc(Sc3ccc(F)cc3Cl)ccc2c1-c1c(Cl)cccc1Cl
6.301	O=c1ncn2nc(Sc3ccc(F)c(Cl)c3)ccc2c1-c1c(Cl)cccc1Cl
